Experimental findings from ChEMBL document CHEMBL4118176, “N-aryl-piperidine-4-carboxamides as a novel class of potent inhibitors of MALT1 proteolytic activity” (Bioorg Med Chem Lett, 2018) are described below.

The structures appear in SMILES notation. ≈ marks a conversion by molar mass, not a printed value. A value given as a limit tells only on which side of the number the result lay.

In series [1] the target is T1, Mucosa-associated lymphoid tissue lymphoma translocation protein 1 (Homo sapiens, UniProt Q9UDY8).
T1 sequence (Q9UDY8 whole entry): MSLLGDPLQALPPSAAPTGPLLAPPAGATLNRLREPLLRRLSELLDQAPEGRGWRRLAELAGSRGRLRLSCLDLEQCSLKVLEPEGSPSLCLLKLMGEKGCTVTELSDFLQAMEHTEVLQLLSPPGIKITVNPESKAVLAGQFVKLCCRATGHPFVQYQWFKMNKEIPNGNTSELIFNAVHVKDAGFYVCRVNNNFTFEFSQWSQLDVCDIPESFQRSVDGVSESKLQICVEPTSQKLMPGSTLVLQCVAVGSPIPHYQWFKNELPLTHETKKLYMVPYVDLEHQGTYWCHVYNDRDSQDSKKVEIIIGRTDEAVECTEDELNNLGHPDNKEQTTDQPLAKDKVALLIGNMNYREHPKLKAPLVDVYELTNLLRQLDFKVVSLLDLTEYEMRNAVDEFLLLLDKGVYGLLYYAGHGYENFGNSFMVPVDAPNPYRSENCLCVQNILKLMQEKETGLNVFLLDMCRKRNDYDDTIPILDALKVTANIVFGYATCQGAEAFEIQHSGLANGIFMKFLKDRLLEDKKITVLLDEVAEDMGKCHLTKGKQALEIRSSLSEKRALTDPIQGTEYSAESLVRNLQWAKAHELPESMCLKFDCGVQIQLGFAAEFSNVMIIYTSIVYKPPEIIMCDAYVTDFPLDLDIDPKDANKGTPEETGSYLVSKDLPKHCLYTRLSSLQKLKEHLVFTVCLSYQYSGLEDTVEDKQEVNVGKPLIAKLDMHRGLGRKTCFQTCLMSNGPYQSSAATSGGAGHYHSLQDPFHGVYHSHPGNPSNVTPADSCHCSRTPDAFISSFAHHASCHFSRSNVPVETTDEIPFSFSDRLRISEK
The series is described as follows: Inhibition of MALT1 (unknown origin) using Ac-Trp-Leu-Arg-Ser-Arg'Cys(PT14)-NH2 as substrate preincubated for 60 mins followed by substrate addition measured after 60 mins by fluorescence assay.

In series [2] the target is Mucosa-associated lymphoid tissue lymphoma translocation protein 1 (Homo sapiens, UniProt Q9UDY8). The series is described as follows: Inhibition of cIAP2 fused MALT1 (unknown origin) expressed in HEK293 cells assessed as suppression of NF-kB activation after 24 hrs by luciferase reporter gene assay. The format is cell-based.
Series [3] concerns the target T1, Mucosa-associated lymphoid tissue lymphoma translocation protein 1. In words: Inhibition of MALT1 in human OCI-LY3 cells assessed a decrease in BCL10 cleavage after 24 hrs by ELISA. Format: cell-based.
The nature of series [4]: Solubility of the compound in buffer at pH 4. The format is physicochemical.
A short description of series [5]: Solubility of the compound in buffer at pH 6.8. Format: physicochemical.
The nature of series [6]: Clearance in rat liver microsomes. Format: ADME, microsome. The following applies: read-out: CLH.
Series [7] in a line: Clearance in rat hepatocytes assessed per 10^6 cells. The format is ADME, cell-based, Hepatocyte.
Series [8] is described as follows: Clearance in rat at 1 mg/kg, iv or 3 mg/kg, po. The format is ADME, organism-based. To be noted: in vivo.
A short description of series [9]: Volume of distribution at steady state in rat at 1 mg/kg, iv or 3 mg/kg, po. Format: ADME, organism-based. To be noted: in vivo, read-out: Vdss.
Series [10] can be described thus: Half life in rat at 1 mg/kg, iv or 3 mg/kg, po. Format: ADME, organism-based. To be noted: in vivo.
A short description of series [11]: AUC in rat at 1 mg/kg, iv. Format: ADME, organism-based. The following applies: in vivo.
Series [12] in a line: Oral bioavailability in rat at 3 mg/kg. The format is ADME, organism-based. The following applies: in vivo.
For series [13], the target named is T1, Mucosa-associated lymphoid tissue lymphoma translocation protein 1. In words: Inhibition of MALT1 in PMA-stimulated human Jurkat T cells assessed as reduction in IL2 level pretreated for 30 mins followed by PMA-stimulation measured after 5.5 hr by bioluminescence assay. The format is cell-based.
The test system of another series is OCI-Ly3. In words: Antiproliferative activity against human OCI-LY3 cells after 72 hrs by CellTiterGlo assay. The format is functional, cell-based. The following applies: OCI-Ly3, 72 h.
Another series concerns BJAB. The series is described as follows: Antiproliferative activity against human BJAB cells after 72 hrs by CellTiterGlo assay. Format: functional, cell-based.
The nature of series [14]: Apparent permeability from apical to basolateral side in human Caco2 cells. The following applies: Caco-2. Format: ADME, cell-based.

Take `O=C(Nc1ccc(F)c(Cl)c1)C1CCN(c2ncccn2)CC1`: the IC50 in series [1] was 1620 nM; in [2] it was 3100 nM. The compound further displayed an EC50 in series [3] of 5400 nM.
Turning to `Cc1nc(C)n(-c2ccc(NC(=O)C3CCN(c4ncccc4[N+](=O)[O-])CC3)cc2Cl)n1`, the IC50 in series [1] turned out to be 184 nM; in series [2] it was 640 nM. Moreover, the solubility came to 170 µM (≈ 77.5 µg/mL) in series [4] and 7 µM (≈ 3.19 µg/mL) in series [5]. The CLint scaled in series [6] was determined as 29 mL/min/kg. The compound further gave a CLH in series [7] of 4.1 µL/min/1e6 cells. In addition, the clearance in [8] amounted to 43 mL/min/kg. For the same compound, the Vd in series [9] is 1.1 L/kg. For the same compound, the half-life in [10] is 30 min. In series [11], this compound returned an AUC of 0.914 µM·h. The same compound returned a bioavailability in [12] of 46%.
`O=C(Nc1ccccc1)C1CCN(c2ncccc2Cl)CC1`: in series [1], the IC50 was found to be 4700 nM.
On the same count and under the same terms, to `CC(C)CN1CCC(C(=O)Nc2ccc(F)c(Cl)c2)CC1` belongs above 100000 nM; to `O=C(NC1CCCCC1)C1CCN(c2ncccc2Cl)CC1`, above 100000 nM.
As to `O=C(Nc1ccc(F)c(Cl)c1)C1CCN(c2nccnc2Cl)CC1`, the results for the IC50 in [1] and in series [2] were 100 nM and 290 nM, respectively. Besides, the EC50 in [3] was 400 nM.
Regarding `COc1ncc(NC(=O)C2CCN(c3ncccc3Cl)CC2)cc1Cl`, the IC50 turned out to be 13 nM in [1] and 190 nM in [2]. Further, the EC50 in series [3] turned out to be 450 nM.
On to `O=C(Nc1cccc(Cl)c1)C1CCN(c2ncccc2Cl)CC1`, for which the figures for the IC50 in [1] and in series [2] were 210 nM and 1590 nM, respectively. In [3], the EC50 amounted to 3400 nM.
In the same order, the values of `O=C(Nc1ccc(F)c(Cl)c1)C1CCN(c2ccccc2)CC1` are 820 nM, 3200 nM and 9200 nM.
Take `Cc1ccc(NC(=O)C2CCN(c3ncccc3Cl)CC2)cc1Cl`: the IC50 in series [1] came out at 54 nM; in series [2], 3700 nM. In addition, the solubility in series [4] and in series [5] was below 4 µM throughout. The CLint scaled in series [6] amounted to 81 mL/min/kg. This compound displayed a CLH in series [7] of 173 µL/min/1e6 cells. This compound also came in with a clearance in [8] of 320 mL/min/kg. The Vd in series [9] was determined as 21.4 L/kg. This compound had a half-life in series [10] of 120 min. The AUC in series [11] was 0.143 µM·h.
Consider `O=C(Nc1ccc(F)c(Cl)c1)C1CCN(c2ncccc2Cl)CC1`, for which the IC50 in series [1] was found to be 28 nM; in series [2], 1350 nM. In addition, in [3], the EC50 turned out to be 1500 nM.
For `N#Cc1cccnc1N1CCC(C(=O)Nc2ccc(F)c(Cl)c2)CC1` the same measures were 420 nM, 2700 nM and 2100 nM.
Take `O=C(Nc1cnc(-n2nccn2)c(Cl)c1)C1CCN(c2ncccc2Cl)CC1`: the IC50 in [1] came out at 4 nM; in series [2], 90 nM; in series [13], 50 nM. For the same compound, the figures for the EC50 (in [3]; with OCI-Ly3; in the series with BJAB) were 230 nM, 1400 nM and above 10000 nM, respectively.
Take `Nc1cccnc1N1CCC(C(=O)Nc2cnc(-n3nccn3)c(Cl)c2)CC1`: the IC50 turned out to be 7 nM in [1], 90 nM in [2] and 80 nM in series [13]. Moreover, the EC50 in series [3] is 560 nM; in the series with OCI-Ly3 it was 3600 nM; in the series with BJAB, above 10000 nM.
Regarding `O=C(Nc1ccc(F)c(Cl)c1)C1CCN(c2ccccn2)CC1`, half-maximal inhibition in series [1] (IC50) required 1900 nM.
`Cc1cn(-c2cc(NC(=O)C3CCN(c4ncccc4Cl)CC3)cc(C(F)(F)F)c2)cn1`: the IC50 in [1] came to 340 nM; in series [2], 3000 nM. Besides, the solubility in series [4] came to 690 µM (≈ 320 µg/mL); in [5], 16 µM (≈ 7.42 µg/mL). In addition, in series [14], the Papp A→B worked out at 7.2 ×10⁻⁶ cm/s. Also, the CLint scaled in series [6] was 60.2 mL/min/kg. Besides, the CLH in series [7] was 18.8 µL/min/1e6 cells. The clearance in [8] was found to be 56 mL/min/kg. In [9], the Vd came to 8.7 L/kg. In [10], the half-life was 144 min. Further, the AUC in series [11] worked out at 0.623 µM·h. Further, the bioavailability in series [12] is 46%.
Turning to `CNC(=O)c1ncn(-c2ccc(NC(=O)C3CCN(c4ncccc4Cl)CC3)cc2Cl)n1`, the IC50 amounted to 21 nM in series [1] and 140 nM in [2]. Also, the EC50 in [3] worked out at 210 nM. Besides, the solubility in series [4] is 8 µM (≈ 3.79 µg/mL); in series [5], below 4 µM. For the same compound, the Papp A→B in [14] was 8.2 ×10⁻⁶ cm/s. For the same compound, the CLint scaled in [6] was 59.8 mL/min/kg. In series [7], the CLH is 228 µL/min/1e6 cells. In addition, in [8], the clearance came out at 282 mL/min/kg. Also, in series [9], the Vd is 7.5 L/kg. This compound also had a half-life in series [10] of 36 min. Also, the AUC in series [11] was found to be 0.125 µM·h.
Consider `O=C(Nc1ccc(F)c(Cl)c1)C1CCN(Cc2ccc(F)cc2)CC1`, for which, in series [1], the IC50 was above 100000 nM.
Consider `Nc1cccnc1N1CCC(C(=O)Nc2ccc(F)c(Cl)c2)CC1`, for which the IC50 is 100 nM in [1] and 420 nM in [2]. Moreover, the EC50 in series [3] worked out at 540 nM.
`N#Cc1ccnc(N2CCC(C(=O)Nc3ccc(F)c(Cl)c3)CC2)c1` showed an IC50 in series [1] of 9000 nM.
`Nc1cccnc1N1CCC(C(=O)Nc2ccc(-n3nccn3)c(Cl)c2)CC1`: the IC50 came out at 35 nM in series [1] and 110 nM in series [2]. Further, the EC50 in series [3] is 190 nM; in the series on OCI-Ly3, 2000 nM; with BJAB, above 10000 nM. For the same compound, the solubility in [4] is 48 µM (≈ 19.1 µg/mL); in [5], below 4 µM. Besides, the Papp A→B in [14] was determined as 19.4 ×10⁻⁶ cm/s. For the same compound, the CLint scaled in series [6] turned out to be 102 mL/min/kg. This compound gave a clearance in series [8] of 259 mL/min/kg. Also, the Vd in [9] amounted to 4.1 L/kg. The compound also showed a half-life in [10] of 18 min. The same compound returned an AUC in [11] of 0.161 µM·h.
